For data set [1], the system named is serum alanine aminotransferase (ALT) increase induced by CCl4. Description: Protective effect against acute hepatic damage induced by carbon tetrachloride (suppression of serum ALT increase). The format is in vivo. The settings on record: Mus musculus; mice, oral 50 mg/kg in 0.2% CMC-Na, 6 h before oral CCl4 (50 ul/kg); serum ALT 24 h after CCl4; read-out: Inhibitory (%) (protective effect of test compound against increase of serum ALT activity induced by CCl4). How it is done:
Carbon tetrachloride (CCl4) is a well-known hepatotoxic agent, thus widely used to produce experimental animal models for screening the potential drugs acting upon hepatic diseases. In this experiment test compounds were administered to mice prior to treatment with CCl4. 24 Hours after the CCl4 treatment, the animals were sacrificed and serum alanine aminotransferase (ALT) levels were determined. The hepatoprotective effect of a test compound was evaluated by the suppressive action against the increase of serum ALT induced by CCl4.
The experimental animals were divided into the normal, the CCl4 treated and the test compound treated groups. Each group consisted of 8 mice with body weight of 20-25 grams. The test compounds were suspended in 0.2% sodium carboxymethylcellulose (CMC--Na) solution and administered orally at the dose of 50 mg/125 ml/kg body weight. Only the vehicle 0.2% CMC--Na solution, was administered to the normal and to the CCl4 treated group instead of the test compound suspension.
6 Hours after the drug administration, the CCl4 solution in olive oil was administered orally to the CCl4 treated-group and the test compound treated group at the dose of 50 ul/25 ml olive oil/kg body weight. The normal group was administered with olive oil only at the same dose. 24 Hours after the CCl4 administration, blood samples were collected from the orbital sinus of the animals and the sera were monitored using an automatic blood analyzer (Gilford, SBA 300). The hepatoprotective effect of the test compounds was expressed by the suppressive percentage against the increase of serum ALT level induced by CCl4 calculated by the following formula; [formula]

Data set [2] deals with serum ALT increase induced by CCl4. Put plainly: Determination of 50% effective dose (ED50) against CCl4-induced serum ALT increase. The data set is classed as in vivo. The settings on record: Mus musculus; mice, oral 50, 25, 12.5 or 6.25 mg/kg, 6 h before CCl4; serum ALT 24 h after CCl4; estimated from dose-response curves; read-out: ED50 (50% effective dose of test compound). The protocol:
The various doses of test compounds were administered to mice, followed by the treatment with CCl4 after 6 hours. 24 Hours after the CCl4 treatment, the serum ALT level of the animals were determined. The hepatoprotective effect of the test compounds and the doses were plotted to form doseresponse curves, from which the ED50 doses of the test compounds were estimated.
The experimental animals were divided into the normal, the CCl4 treated and the test compound treated groups. Each group consisted of 8 mice with body weight of 20-25 grams. The test compounds were suspended in 0.2% CMC--Na solution and administered orally at a dose of 50 mg, 25 mg, 12.5 mg or 6.25 mg/125 ml/kg body weight. Only the vehicle, 0.2% CMC--Na solution, was administered to the normal and to the CCl4 treated group instead of the test compound suspension. 6 Hours later, the CCl4 solution in olive oil was administered orally to the CCl4 treated and the test compound treated groups at the dose of 50 ul/25 ml oilve oil/kg body weight. The norm group was administered olive oil only at the same dose. 24 Hours after the CCl4 administration, blood samples were collected from the orbital sinuses of the animals and the sera were obtained by centrifugation. The serum ALT activities were monitored and the hepatoprotective effect of the test compounds were calculated by the same method as described in experiment 1. The percentages were plotted against the corresponding doses of the test compounds to make dose-response curves, from which the 50% effective dose of test compound was estimated.

Data set [3] can be described thus: Acute toxicity of test compounds (oral LD50). The conditions noted are these: mouse, in vivo, male ICR mice, 0.2% CMC-Na suspension, dead mice counted for 14 days, read-out: LD50 of Test Compound (column head prints ED50). The protocol: Each test compound was suspended in 0.2% CMC--Na solution in various concentrations to make test suspensions. The test suspensions were administered orally to male ICR mice (10 in each group) at various doses. The number of dead mice was counted for 14 days and the value of median lethal dose (LD50, g/kg) was calculated by the Hitchifield-Wilcoxon method.

Consider `CC(C)OC(=O)C(C(=O)Nc1nccs1)=C1SCS1` [Example 22, Isopropyl 2-(1,3-dithietan-2-ylidene)-2-[N-(2-thiazolyl)carbamoyl]acetate], for which the inhibition in vivo at 50 mg/kg in data set [1] was 100%. Besides, the ED50 in data set [2] was less than 6.25 mg/kg. In addition, the LD50 at 336 h in data set [3] is more than 5000 mg/kg.

For the compound `CC(C)OC(=O)C(C(=O)Nc1nc(-c2ccccc2)cs1)=C1SCS1` [Example 27, Isopropyl 2-(1,3-dithietan-2-ylidene)-2-[N-(4-phenyl-2-thiazolyl)carbamoyl]acetate], the inhibition in vivo at 50 mg/kg in data set [1] was 11%. The ED50 in data set [2] is more than 50 mg/kg.

Consider `Cc1csc(NC(=O)C(C(=O)OC(C)C)=C2SCS2)n1` [Example 24, Isopropyl 2-(1,3-dithietan-2-ylidene)-2-[N-(4-methyl-2-thiazolyl)carbamoyl]acetate], for which, in data set [1], the inhibition in vivo at 50 mg/kg was 100%. Further, the ED50 in data set [2] was less than 6.25 mg/kg. Also, the LD50 at 336 h in data set [3] is more than 5000 mg/kg.

In the case of `CC(C)OC(=O)C(C(=O)Nc1ccc(C(F)(F)F)cc1)=C1SCCS1` [Example 21, Isopropyl 2-(1,3-dithiolan-2-ylidene)-2-[N-(4-trifluoromethylphenyl)carbamoyl]acetate], the inhibition in vivo at 50 mg/kg in data set [1] was found to be 98%. Further, the ED50 in data set [2] is less than 50 mg/kg.

On to `CC(C)OC(=O)C(C(=O)Nc1ccccn1)=C1SCS1` [Example 29, Isopropyl 2-(1,3-dithietan-2-ylidene)-2-[N-(2-pyridyl)carbamoyl]acetate], for which the inhibition in vivo at 50 mg/kg in data set [1] worked out at 100%. Besides, in data set [2], the ED50 was 10 mg/kg. Moreover, the LD50 at 336 h in data set [3] is more than 5000 mg/kg.

Turning to `CC(C)OC(=O)C(C(N)=O)=C1SCS1` [Example 13, Isopropyl 2-(1,3-dithietan-2-ylidene)-2-carbamoylacetate], in data set [1], the inhibition in vivo at 50 mg/kg was found to be 28%. Also, the ED50 in data set [2] was more than 50 mg/kg. Moreover, in data set [3], the LD50 at 336 h was less than 5000 mg/kg.

Regarding `CC(C)OC(=O)C(C(=O)NCc1ccccc1)=C1SCS1` [Example 15, Isopropyl 2-(1,3-dithietan-2-ylidene)-2-(N-benzylcarbamoyl)acetate], in data set [1], the inhibition in vivo at 50 mg/kg is 97%. The ED50 in data set [2] is 10 mg/kg.

As to `Cc1csc(NC(=O)C(C(=O)OC(C)C)=C2SCCS2)n1` [Example 26, Isopropyl 2-(1,3-dithiolan-2-ylidene)-2-[N-(4-methyl-2-thiazolyl)carbamoyl]acetate], the inhibition in vivo at 50 mg/kg in data set [1] worked out at 98%. The ED50 in data set [2] is less than 50 mg/kg.

Regarding `CC(C)OC(=O)C(C(=O)Nc1ccccc1)=C1SCS1` [Example 18, Isopropyl 2-(1,3-dithietan-2-ylidene)-2-(N-phenylcarbamoyl)acetate], the inhibition in vivo at 50 mg/kg in data set [1] is 100%. Besides, in data set [2], the ED50 was 7 mg/kg.

Regarding `CC(C)OC(=O)C(C(=O)Nc1ccc(C(F)(F)F)cc1)=C1SCS1` [Example 19, Isopropyl 2-(1,3-dithietan-2-ylidene)-2-[N-(4-trifluoromethylphenyl)carbamoyl]acetate], the inhibition in vivo at 50 mg/kg in data set [1] turned out to be 100%. Moreover, the ED50 in data set [2] was 6.25 mg/kg.

As for `CC(C)OC(=O)C(C(=O)Nc1ccccn1)=C1SCCS1` [Example 32, Isopropyl 2-(1,3-dithiolan-2-ylidene)-2-[N-(2-pyridyl)carbamoyl]acetate], the inhibition in vivo at 50 mg/kg in data set [1] is 85%. Also, in data set [2], the ED50 was less than 50 mg/kg.

Take `CC(C)OC(=O)C(C(=O)Nc1nncs1)=C1SCS1` [Example 28, Isopropyl 2-(1,3-dithietan-2-ylidene)-2-[N-(1,3,4-thiadiazol-2-yl)carbamoyl]acetate]: in data set [1], the inhibition in vivo at 50 mg/kg came to 100%. The ED50 in data set [2] is less than 6.25 mg/kg. Moreover, the LD50 at 336 h in data set [3] is more than 5000 mg/kg.

As usually defined, the ED50 is the dose that gives a 50% effect, or the effect in half of the subjects. One may read the LD50 as the dose expected to kill half of the subjects tested.

These data come from US5103013A, “Dithioketene derivatives, pharmaceutical compositions containing the same and uses thereof” (Yuhan Corporation, Ltd., priority 1988, dated 1992).
